Like-named read-outs stand apart in the source and are kept apart here.
How the values were obtained:
C. albicans = assay: Drug susceptibility assay in combination with azole antifungals and other Cdr1/Mdr1 substrates; assay type: cell-based, Candida albicans; details: for EC50 / MIC50: Candida albicans
Procedure: Drug susceptibility assay. All the assays were carried out with SC medium in 24-well plates. […] Plates were incubated at 30° C. for 15 h. Cell growth was measured by reading absorbance at 600 nm. […] EC50 values were calculated by nonlinear regression curve fit of log (concentration) versus the % cell growth.
Compound 1 was also studied to determine if it can synergize with all azole antifungals and non-azole drugs that are known Cdr1 substrates. […] The effective concentrations of the spiroindolinone used are at nM levels, much lower than that of substrates (azoles for example), therefore ruling out competitive inhibition as the mechanism. […] With further study it is possible to determine drug-target interaction sites on Cdr1.

[1] = system: susceptible strain (HLY4123) of C. albicans; assay: Dose-response with fluconazole (0.25 μg/mL) against susceptible strain; assay type: cell-based, Candida albicans; details: Candida albicans, with fluconazole 0.25 μg/mL; strain HLY4123
Procedure: (§1) C. albicans was grown in SC medium overnight and then diluted to an effective OD600 of 0.0625. Serial ten-fold dilutions of the test compounds (0.15-1500 μM) were prepared in DMSO in 1.5 mL Eppendorf tubes. […] The plates were incubated in a rotary shaker/incubator at 30° C. for 16 h. The contents of each well was resuspended with a micropipettor and a 20 μL aliquot was added to a polystyrene cuvette and diluted with 680 μL of deionized water. The suspension was triturated again immediately before measuring the absorbance at 600 nm (OD600) for cell densities. EC50 values were determined by fitting to the Hill equation using the Excel-based tool ED50PLUS v1.0 (Mario H. Vargas) or using Mathematica. Similar procedures were used for Candida glabrata and Cryptococcus neoformans.

[2] = system: Resistant Candida albicans (clinical isolate-45); assay: EC50 in combination with fluconazole, resistant C. albicans; assay type: cell-based
Candida glabrata = assay: EC50 in combination with fluconazole, Candida glabrata; assay type: cell-based; details: [fluconazole] = 128 μg/mL
Excerpt: (§2) Strains and growth condition. The wild-type Candida albicans strains used were SC5314 and CaSS1. Cdr1 heterozygous were from Merck Sharp & Dohme Corp. Double Barcoded (DBC) library of heterozygous Candida albicans mutants (version 2013A). Cdr1 deficient mutant was obtained by counterselection of the GRACE library strain on 5-Fluoroorotic Acid (5-FOA) containing plate. Clinical isolated resistant C. albicans were from Dr. David Rogers. Cryptococcus neoformans var. grubii H99 (ATCC 208821) and Candida glabrata BG2, a fluconazole-resistant clinical isolate, were used. Yeast strains were cultured at 30° C. in synthetic complete (SC) medium containing 2% glucose.
as §1
(§3) Because fungal drug-efflux ABC transporters are conserved, Cdr1 inhibitors that target the conserved regions of the pumps are expected to inhibit the drug efflux pumps in all fungi including C. albicans. […] Therefore, those spiroindolinones are candidates for combination antifungal therapy with azoles against invasive infections of not only C. albicans, but also other pathogenic fungi.

Cryptococcus neoformans = assay: EC50 in combination with fluconazole, Cryptococcus neoformans; assay type: cell-based; details: [fluconazole] = 4 μg/mL
Excerpt: as §2, §1, §3

[3] = system: resistant clinical isolates of C. albicans; assay: Screen of resistant clinical isolates, single dose, broth microdilution (growth OD600); assay type: cell-based, Candida albicans; details: compound 25 3 μM + fluconazole 64 μg/mL, 16 h
Excerpt: (Flowers, S. A., et al. Eukaryotic Cell 2012, 11, 1289-1299.) The strains grow at dramatically different rates.

[4] = system: C. albicans strain HLY4123 and clinical isolates 26 and 45; assay: Checkerboard assay (MIC90, FIC index); assay type: cell-based, Candida albicans; details: for MIC90: Candida albicans; for FICI: Compound 25 + fluconazole
Procedure: Checkerboard assays were carried out using four 24-well plates. The results on each plate were normalized by duplication of one row and one column with a row and column on another plate. C. albicans was grown in SC medium overnight and then diluted to an effective OD600 of 0.0625. Serial ten-fold dilutions of the test compounds (150 mM) were prepared in DMSO in 1.5 mL Eppendorf tubes. […] Concentrations of compound in rows 1-11 varied from 300 μM to 0.0003 nM; the last row 12 contained no compound. […] The plates were incubated in a rotary shaker/incubator at 30° C. for 16 h. The contents of each well was resuspended with a micropipettor and a 20 μL aliquot was added to a polystyrene cuvette and diluted with 680 μL of deionized water. The suspension was triturated again immediately before measuring the absorbance at 600 nm. The MIC90 values were determined as the lowest concentrations of the drugs (alone or in combination) that inhibited fungal growth by 90% compared with that of the drug-free wells.
In all of the strains tested, the FIC index was below 0.5, fitting the classical definition of synergy.

[5] = MDR1, with clotrimazole 0.221 μg/mL
[6] = MDR1, with fluconazole 0.500 μg/mL
[7] = MDR1, with itraconazole 0.004 μg/mL
[8] = MDR1, with ketoconazole 0.289 μg/mL
[9] = MDR1, with miconazole 0.031 μg/mL
[10] = MDR1, with vorizonazole 0.006 μg/mL

How did the EC50 (C. albicans; [5]) turn out when `Cc1c(Cl)ccc2c1NC(=O)[C@]21N[C@H](Cc2ccccc2)[C@@H]2C(=O)N(c3ccc(F)cc3)C(=O)[C@@H]21` (racemic) [Compound 1, (±)-(3R,3′R,3a′R,6a'S)-3′-benzyl-6-chloro-5′-(4-fluorophenyl)-7-methyl-2′,3′,3a′,6a′-tetrahydro-4′H-spiro[indoline-3,1′-pyrrolo[3,4-c]pyrrole]-2,4′,6′(5′H)-trione] was run?
Its EC50 is 500 nM.

What about the EC50 (C. albicans; [6]) of the same compound?
The EC50 was 100 nM.

And the EC50 (C. albicans; [7])?
The EC50 was 700 nM.

What about the EC50 (C. albicans; [8]) of the same compound?
The EC50 was 830 nM.

And the EC50 (C. albicans; [9])?
Its EC50 is 990 nM.

And the EC50 (C. albicans; [10])?
The EC50 was 310 nM.

What about the MIC50 (C. albicans; with clotrimazole 0.221 μg/mL) of the same compound?
The MIC50 was 3.7 µM.

And the MIC50 (C. albicans; with fluconazole 0.500 μg/mL)?
Its MIC50 is 1.3 µM.

What about the MIC50 (C. albicans; with itraconazole 0.004 μg/mL) of the same compound?
Its MIC50 is 1.7 µM.

And the MIC50 (C. albicans; with ketoconazole 0.289 μg/mL)?
The MIC50 was 7.4 µM.

And the MIC50 (C. albicans; with miconazole 0.031 μg/mL)?
The MIC50 was 3.6 µM.

And the MIC50 (C. albicans; with vorizonazole 0.006 μg/mL)?
The MIC50 was 4.5 µM.

What about the “susceptibility of C. albicans to azole antifungals” value (C. albicans; all azole antifungals tested) of the same compound?
The value was “increase the susceptibility”.

What about the “growth inhibitory activity of cycloheximide” value (C. albicans; cycloheximide, substrate of the Cdr1 efflux pump) of the same compound?
The value was “enhance the growth inhibitory activity”.

What about the “growth inhibitory activity of thiolutin” value (C. albicans; thiolutin, substrate of Mdr1) of the same compound?
The value was “did not enhance the growth inhibitory activity”.

What about the EC50 [1] of the same compound?
The EC50 was 11 nM.

What about the EC50 ([2]; C. albicans clinical isolate-45; [fluconazole] = 64 μg/mL; read-out: EC50 Resistant Candida albicans) of the same compound?
The EC50 was 440 nM.

And the EC50 (Candida glabrata)?
Its EC50 is 640 nM.

And the EC50 (Cryptococcus neoformans)?
Its EC50 is > 30000 nM.

What does the source list for `Cc1c(Cl)ccc2c1NC(=O)[C@@]21[C@H]2C(=O)N(c3ccccc3)C(=O)[C@H]2[C@H]2CN(C(=O)OCc3ccccc3)CCN21` (racemic) [Compound 25, (±)-benzyl (3R,3a′R,3b'S,9a'S)-6-chloro-7-methyl-1′,2,3′-trioxo-2′-phenyl-2′,3′,3a′,3b′,4′,6′,7′,9a′-octahydrospiro[indoline-3,9′-pyrrolo[3′,4′:3,4]pyrrolo[1,2-a]pyrazine]-5′(1′H)-carboxylate]?
EC50 (C. albicans; [5]): 150 nM; EC50 (C. albicans; [6]): 11 nM; EC50 (C. albicans; MDR1, with isavuconazole 0.0006 μg/mL): 4 nM; EC50 (C. albicans; [7]): 190 nM; EC50 (C. albicans; [8]): 14 nM; EC50 (C. albicans; [9]): 240 nM; EC50 (C. albicans; [10]): 62 nM; MIC50 (C. albicans; with clotrimazole 0.221 μg/mL): 4.1 µM; MIC50 (C. albicans; with fluconazole 0.500 μg/mL): 0.84 µM; MIC50 (C. albicans; with isavuconazole 0.0006 μg/mL): 0.11 µM; MIC50 (C. albicans; with itraconazole 0.004 μg/mL): 2.5 µM; MIC50 (C. albicans; with ketoconazole 0.289 μg/mL): 2.3 µM; MIC50 (C. albicans; with miconazole 0.031 μg/mL): 25 µM; MIC50 (C. albicans; with vorizonazole 0.006 μg/mL): 1.9 µM; EC50 [1]: 0.3 nM; Growth (OD600) +Cpd25 + Fluc ([3]; clinical isolate 15): 2.64; Growth (OD600) +Cpd25 + Fluc ([3]; clinical isolate 16): 0.43; Growth (OD600) +Cpd25 + Fluc ([3]; clinical isolate 17): 0.79; Growth (OD600) +Cpd25 + Fluc ([3]; clinical isolate 21): 2.02; Growth (OD600) +Cpd25 + Fluc ([3]; clinical isolate 22): 1.28; Growth (OD600) +Cpd25 + Fluc ([3]; clinical isolate 23): 0.60; Growth (OD600) +Cpd25 + Fluc ([3]; clinical isolate 25): 1.59; Growth (OD600) +Cpd25 + Fluc ([3]; clinical isolate 26): 0.83; Growth (OD600) +Cpd25 + Fluc ([3]; clinical isolate 30): 5.38; Growth (OD600) +Cpd25 + Fluc ([3]; clinical isolate 33): 0.88; Growth (OD600) +Cpd25 + Fluc ([3]; clinical isolate 36): 1.07; Growth (OD600) +Cpd25 + Fluc ([3]; clinical isolate 41): 6.52; Growth (OD600) +Cpd25 + Fluc ([3]; clinical isolate 45): 1.03; Growth (OD600) +Cpd25 + Fluc ([3]; clinical isolate 49): 11.29; MIC90 ([4]; read-out: MICcpd (+Flc) (MIC90), clinical isolate 26, with fluconazole): 0.3 µM; MIC90 ([4]; read-out: MICcpd (+Flc) (MIC90), clinical isolate 45, with fluconazole): 0.03 µM; MIC90 ([4]; read-out: MICcpd (+Flc) (MIC90), strain HLY4123, with fluconazole): 0.03 µM; MIC90 ([4]; read-out: MICcpd (MIC90), clinical isolate 26, compound alone): > 30 µM; MIC90 ([4]; read-out: MICcpd (MIC90), clinical isolate 45, compound alone): > 30 µM; MIC90 ([4]; read-out: MICcpd (MIC90), strain HLY4123, compound alone): > 300 µM; FIC index ([4]; all of the strains tested, with fluconazole): below 0.5; toxicity of compound alone against the strains ([4]; alone, at the solubility limit, any of the strains): did not have measurable toxicity; FICI ([4]; clinical isolate 26): 0.14; FICI ([4]; clinical isolate 45): 0.13; FICI ([4]; strain HLY4123): 0.25; EC50 ([2]; read-out: EC50 Resistant Candida albicans; C. albicans clinical isolate-45; [fluconazole] = 64 μg/mL): 400 nM; EC50 (Candida glabrata): > 30000 nM; EC50 (Cryptococcus neoformans): 192 nM

From patent publication US11174267B2, “Spiroindolinones and therapeutic uses thereof” (The Regents of the University of California, priority 2015, dated 2021)
